Test results: patent US20140107109A1, “AMINO-DIHYDROTHIAZINE AND AMINO-DIOXIDO DIHYDROTHIAZINE COMPOUNDS AS BETA-SECRETASE ANTAGONISTS AND METHODS OF USE” (Amgen Inc., priority 2012, published 2014)
Like-named read-outs stand apart in the source and are kept apart here.

Key:
[1] = tested on: Aβ40 in conditioned medium of cells stably expressing Amyloid Precursor Protein (APP); assay: In vitro BACE cell-based assay (HEK cell assay), Aβ40 sandwich ELISA; conditions: Homo sapiens, HEK293
Experimental: In Vitro BACE Cell-Based Assay
The cell-based assay measures inhibition or reduction of Aβ40 in conditioned medium of test compound treated cells expressing amyloid precursor protein.
Cells stably expressing Amyloid Precursor Protein (APP) were plated at a density of 40K cells/well in 96 well plates (Costar). The cells were cultivated for 24 hours at 37C. and 5% CO2 in DMEM supplemented with 10% FBS. The test compounds were then added to cells in 10-point dose response concentrations with the starting concentration being either 100 μM or 10 μM. The compounds were diluted from stock solutions in DMSO and the final DMSO concentration of the test compounds on cells was 0.1%. After 24 h of incubation with the test compounds the supernatant conditioned media was collected and the Aβ 40 levels were determined using a sandwich ELISA. The IC50 of the compound was calculated from the percent of control or percent inhibition of Aβ 40 as a function of the concentration of the test compound.
The sandwich ELISA to detect Aβ 40 was performed in 96 well microtiter plates, which were pre-treated with goat anti-rabbit IgG (Pierce). The capture and detecting antibody pair that were used to detect Aβ 40 from cell supernatants were affinity purified pAb40 (Biosource) and biotinylated 6E10 (Signet Labs Inc.), respectively. The optimal concentration for the pAb40 antibody was 3 μg/ml in Superblock/TBS (Pierce) that was supplemented with 0.05% Tween 20 (Sigma). Optimal concentration for the detection antibody 6E10-biotinylated was 0.5 μg/ml in Superblock/TBS (Pierce) that had been supplemented with 2% normal goat serum and 2% normal mouse serum.
Cellular supernatants were incubated with the capture antibody for 3 h at 4° C., followed by 3 wash steps in TBS-tween (0.05%). The detecting antibody incubation was for 2 h at 4° C., again followed by the wash steps as described previously. The final readout of the ELISA is Time-Resolved Fluorescence (counts per minute) using Delfia reagents Streptavidin-Europium and Enhancement solutions (Perkin Elmer) and the Victor 2 multilabel counter (Perkin Elmer).

Cathepsin D (Cat D) = target: T1, Cathepsin D (Cat D) (Homo sapiens, UniProt P07339); assay: In vitro enzymatic Cathepsin D (Cat D) FRET assay; assay type: biochemical; conditions: read-out: CatD IC50
T1 construct: Recombinant Cat D was expressed in CHO cells; made in house; host or cells: CHO cells
Experimental: In Vitro Enzymatic Cathepsin D (Cat D) FRET (Fluorescence Resonance Energy Transfer) Assay Recombinant Cat D was expressed in CHO cells. […] The Cat D enzyme (9 nM) is pre-incubated for one hour with inhibitors, typically in about 1 uL of DMSO according to a serial dilution, is added thereto. […] The FRET assay is terminated with by addition of Tris buffer, which raises the pH to neutrality, and the fluorescence is determined. The FRET substrate is a peptide with commercially available fluorophore and quencher, on opposite sides of the BACE cleavage site. The Cat D substrate peptide sequence is based on sequence #1 of Table 1 from Gulnik et al. […] Alternatively, a Cat D assay may also be run according to the procedure described in the article, Characterization of new fluorgenic substrates for the rapid and sensitive assay of cathepsin E and cathepsin D, J. Biochem., 125:1137, 1999. In addition, the cathepsin D and cathepsin E assays are described in PCT publication WO2011069934. This WIPO publication describes BACE inhibitor compounds having an amide linker connecting two aromatic groups with extremely poor cathepsin D and/or cathepsin E inhibitory activity (see Table 2). Where available, the in-vitro Cat D FRET assay data for each of the Examples, conducted by the first procedure, is provided.

[2] = target: Beta Secretase enzyme (BACE1) (Homo sapiens, UniProt P56817); assay: In vitro enzymatic BACE FRET assay; assay type: biochemical; conditions: read-out: BACE1 FRET assay IC50
Experimental: In Vitro Enzymatic BACE FRET (Fluorescence Resonance Energy Transfer) Assay (Enzyme Assay Data in the Example Tables I and II)
The assay buffer used in this screen is 0.05 M acetate, pH 4.2, 10% DMSO final, 100 uM genapol (which is a nonionic detergent, below its Critical Micelle Concentration). […] This assay is effectively started by the addition of FRET substrate (50 nM) and the combination is incubated for one hour. The FRET assay is terminated with by addition of Tris buffer, which raises the pH to neutrality, and the fluorescence is determined. The FRET substrate is a peptide with commercially available fluorophore and quencher, on opposite sides of the BACE cleavage site. Proteolytic cleavage of the FRET substrate releases quenching of fluorescence (excitation […] and […]).

Chain of Beta Secretase enzyme (BACE1) (P56817 46-501): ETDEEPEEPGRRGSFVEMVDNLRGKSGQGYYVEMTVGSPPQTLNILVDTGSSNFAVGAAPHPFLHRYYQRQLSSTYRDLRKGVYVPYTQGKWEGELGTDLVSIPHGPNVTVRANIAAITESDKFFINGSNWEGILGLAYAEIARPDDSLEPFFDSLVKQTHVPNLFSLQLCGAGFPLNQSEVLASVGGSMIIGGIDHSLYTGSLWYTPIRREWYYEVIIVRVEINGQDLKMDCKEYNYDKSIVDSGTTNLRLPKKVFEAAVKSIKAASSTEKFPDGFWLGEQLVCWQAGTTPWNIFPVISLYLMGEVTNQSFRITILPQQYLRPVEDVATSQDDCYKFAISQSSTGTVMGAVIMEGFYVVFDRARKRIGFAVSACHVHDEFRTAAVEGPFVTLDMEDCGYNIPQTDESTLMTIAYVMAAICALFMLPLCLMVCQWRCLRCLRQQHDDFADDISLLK
T1 sequence (P07339 65-412, species assumed): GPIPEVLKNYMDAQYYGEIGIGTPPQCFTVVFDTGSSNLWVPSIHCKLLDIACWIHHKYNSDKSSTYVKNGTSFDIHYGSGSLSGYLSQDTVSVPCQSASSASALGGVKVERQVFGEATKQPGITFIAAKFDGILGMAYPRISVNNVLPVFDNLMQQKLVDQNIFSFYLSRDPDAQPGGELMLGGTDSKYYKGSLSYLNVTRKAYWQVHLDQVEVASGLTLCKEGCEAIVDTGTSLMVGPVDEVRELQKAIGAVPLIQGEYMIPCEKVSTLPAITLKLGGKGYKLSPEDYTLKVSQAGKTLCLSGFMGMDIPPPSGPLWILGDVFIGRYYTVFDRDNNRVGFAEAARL

IC50 ([1]; Aβ40, 24 h incubation) [µM] | IC50 (Cathepsin D (Cat D)) [µM] | Structure (SMILES) | also measured
 | 87.9 | CC1(C)C(N)=N[C@@]2(c3cc(Nc4nccc5cc(Cl)cnc45)ccc3F)C[C@H]2S1(=O)=O [Example 183, (1R,6R)-4-amino-6-(5-((3-chloro-1,7-naphthyridin-8-yl)amino)-2-fluorophenyl)-3,3-dimethyl-2-thia-5-azabicyclo[4.1.0]hept-4-ene 2,2-dioxide] | IC50 ([1]; average IC50, cell assay): 4.74 µM
 | > 44.4 | CC1(C)C(N)=N[C@](C)(c2cc(Nc3nccc4nc(C(F)(F)F)cnc34)ccc2F)C(F)S1(=O)=O (stereo partly drawn) [Example 227, N-(3-((3R)-5-amino-2-fluoro-3,6,6-trimethyl-1,1-dioxido-3,6-dihydro-2H-1,4-thiazin-3-yl)-4-fluorophenyl)-2-(trifluoromethyl)pyrido[3,4-b]pyrazin-5-amine] | IC50 ([2]; average IC50, enzyme assay): 0.00659 µM
 | 58.9 | CC1(C)C(N)=N[C@](C)(c2cc(Nc3ncnc4cc(Cl)cnc34)ccc2F)C(F)S1(=O)=O (stereo partly drawn) [Example 228, N-(3-((3R)-5-amino-2-fluoro-3,6,6-trimethyl-1,1-dioxido-3,6-dihydro-2H-1,4-thiazin-3-yl)-4-fluorophenyl)-7-chloropyrido[3,2-d]pyrimidin-4-amine] | IC50 ([2]; average IC50, enzyme assay): 0.00328 µM
 | 184 | CC1(C)C(N)=N[C@](C)(c2cc(OCc3ccccc3)ccc2F)CS1(=O)=O [Example 301, (5R)-5-(5-(benzyloxy)-2-fluorophenyl)-2,2,5-trimethyl-5,6-dihydro-2H-1,4-thiazin-3-amine 1,1-dioxide] | IC50 ([1]; average IC50, HEK cell assay): 1.06 µM

Further lines, the compound ahead of its results:

Structure (SMILES) | IC50 ([1]; Aβ40, 24 h incubation) [µM] | IC50 (Cathepsin D (Cat D)) [µM] | also measured
COc1cnc(C(=O)Nc2ccc(F)c(C3(C(F)(F)F)CS(=O)(=O)C(C)(C)C(N)=N3)c2)cn1 (stereo in doubt) [Example 34, N-(3-((3R)-5-amino-6,6-dimethyl-1,1-dioxido-3-(trifluoromethyl)-3,6-dihydro-2H-1,4-thiazin-3-yl)-4-fluorophenyl)-5-methoxy-2-pyrazinecarboxamide] | > 10 |  | 
COc1cnc(C(=O)Nc2ccc(F)c([C@]3(C)CS(=O)(=O)C(C)(C)C(N)=N3)c2)cn1 [Example 17, N-(3-((3R)-5-amino-3,6,6-trimethyl-1,1-dioxido-3,6-dihydro-2H-1,4-thiazin-3-yl)-4-fluorophenyl)-5-methoxy-2-pyrazinecarboxamide] | 0.0022 | > 400 | 
CC1(C)C(N)=N[C@](C)(c2cc(NC(=O)c3ccc(Cl)cn3)ccc2F)CS1(=O)=O [Example 19, N-(3-((3R)-5-amino-3,6,6-trimethyl-1,1-dioxido-3,6-dihydro-2H-1,4-thiazin-3-yl)-4-fluorophenyl)-5-chloro-2-pyridinecarboxamide] | 0.0014 | 240 | 
COc1cnc(C(=O)Nc2ccc(F)c([C@]3(C)CSCC(N)=N3)c2)cn1 [Example 43, (R)—N-(3-(5-amino-3-methyl-3,6-dihydro-2H-1,4-thiazin-3-yl)-4-fluorophenyl)-5-methoxypyrazine-2-carboxamide] | 0.007 |  | 
COc1cnc2c(Nc3cnc(F)c([C@]4(C)CS(=O)(=O)C(C)(C)C(N)=N4)c3)nccc2c1 [Example 66, N-(5-((3R)-5-amino-3,6,6-trimethyl-1,1-dioxido-3,6-dihydro-2H-1,4-thiazin-3-yl)-6-fluoro-3-pyridinyl)-3-methoxy-1,7-naphthyridin-8-amine] | 0.0067 |  | 
COc1cc(C)ccc1Oc1ccc(F)c([C@]2(C)CS(=O)(=O)C(C)(C)C(N)=N2)c1 [Example 97, (R)-5-amino-3-(2-fluoro-5-(2-methoxy-4-methylphenoxy)phenyl)-3,6,6-trimethyl-3,6-dihydro-2H-1,4-thiazine 1,1-dioxide] | 6.86 | 182 | 
CC1(C)C(N)=N[C@](C)(c2cc(NC(=O)c3nn(C(F)F)cc3Cl)ccc2F)CS1(=O)=O [Example 106, (R)—N-(3-(5-amino-3,6,6-trimethyl-1,1-dioxido-3,6-dihydro-2H-1,4-thiazin-3-yl)-4-fluorophenyl)-4-chloro-1-(difluoromethyl)-1H-pyrazole-3-carboxamide] |  | 112 | IC50 [2]: 0.00174 µM
CC1(C)C(N)=N[C@](C)(c2cc(NCc3nn(C(F)F)cc3Cl)ccc2F)CS1(=O)=O [Example 107, (R)-5-amino-3-(5-(((4-chloro-1-(difluoromethyl)-1H-pyrazol-3-yl)methyl)amino)-2-fluorophenyl)-3,6,6-trimethyl-3,6-dihydro-2H-1,4-thiazine 1,1-dioxide] |  | 81.1 | IC50 ([2]; average IC50, enzyme assay): 0.00227 µM
C[C@@]1(c2cc(Br)ccc2F)CS(=O)(=O)C2(CC(O)C2)C(N)=N1 (stereo partly drawn) [Example 112, (R)-9-amino-7-(5-bromo-2-fluorophenyl)-2-hydroxy-7-methyl-5-thia-8-azaspiro[3.5]non-8-ene 5,5-dioxide] |  | 37.3 | IC50 ([2]; average IC50, enzyme assay): 1.19 µM
C[C@@]1(c2cc(Br)ccc2F)CS(=O)(=O)C2(CCC2)C(N)=N1 [Example 113, (R)-9-amino-7-(5-bromo-2-fluorophenyl)-7-methyl-5-thia-8-azaspiro[3.5]non-8-ene 5,5-dioxide] |  | 30 | IC50 ([2]; average IC50, enzyme assay): 4.05 µM
CC1(C)C(N)=NC2(c3cc(Br)ccc3F)COCC2S1(=O)=O (stereo not shown) [Example 185, 3-amino-4a-(5-bromo-2-fluorophenyl)-2,2-dimethyl-4a,5,7,7a-tetrahydro-2H-furo[3,4-b][1,4]thiazine 1,1-dioxide] |  |  | IC50 ([1]; average IC50, cell assay): > 15.6 µM
CC1(C)C(N)=N[C@@]2(c3cc(Br)ccc3F)COC[C@H]2S1(=O)=O [Example 185a, (4aS,7aS)-3-amino-4a-(5-bromo-2-fluorophenyl)-2,2-dimethyl-4a,5,7,7a-tetrahydro-2H-furo[3,4-b][1,4]thiazine 1,1-dioxide] |  |  | IC50 ([1]; average IC50, cell assay): > 15.6 µM
CC1(C)C(N)=N[C@]2(c3cc(Br)ccc3F)COC[C@@H]2S1(=O)=O [Example 185b, (4aR,7aR)-3-amino-4a-(5-bromo-2-fluorophenyl)-2,2-dimethyl-4a,5,7,7a-tetrahydro-2H-furo[3,4-b][1,4]thiazine 1,1-dioxide] |  |  | IC50 ([1]; average IC50, cell assay): > 15.6 µM
CC1(C)C(N)=N[C@@]2(c3cc(N)ccc3F)COC[C@H]2S1(=O)=O [Example 185c, (4aS,7aS)-3-amino-4a-(5-amino-2-fluorophenyl)-2,2-dimethyl-4a,5,7,7a-tetrahydro-2H-furo[3,4-b][1,4]thiazine 1,1-dioxide] |  |  | IC50 ([1]; average IC50, HEK cells): > 15.6 µM
CC1(C)C(N)=N[C@]2(c3cc(N)ccc3F)COC[C@@H]2S1(=O)=O [Example 185d, (4aR,7aR)-3-amino-4a-(5-amino-2-fluorophenyl)-2,2-dimethyl-4a,5,7,7a-tetrahydro-2H-furo[3,4-b][1,4]thiazine 1,1-dioxide] |  |  | IC50 ([1]; average IC50, HEK cells): > 15.6 µM
CC1(C)C(N)=N[C@](CF)(c2cc(Nc3nncc4cc(Cl)ccc34)ccc2F)CS1(=O)=O [Example 450, N-(3-((3S)-5-amino-3-(fluoromethyl)-6,6-dimethyl-1,1-dioxido-3,6-dihydro-2H-1,4-thiazin-3-yl)-4-fluorophenyl)-6-chloro-1-phthalazinamine] |  |  | IC50 ([1]; average IC50, cell assay): 0.7 µM
